Measurements published in ChEMBL document CHEMBL6153110, “Peptide Double-Stapling and Arginine N-Glycosylation Triggered the Development of Therapeutic Antimicrobial Peptides Capable of Killing Drug-Resistant Bacteria in Mice” (J Med Chem, 2025).
Values after ≈ are worked out from the molar mass of the structure shown. Starred links: 1 amine or outer side, 2 acyl side, 3 side chain; linkers in the order of their positions; H or OH if unused. Positions of bridges follow the written chain, without caps; N, C: chain ends. Non-standard residues stand in square brackets, D forms with d. Residues, ends and D or L forms follow the SMILES beside them. X1 = N=C(NCCC[C@H](N[*:1])C(=O)[*:2])N[C@@H]1O[C@H](CO)[C@@H](O[C@H]2O[C@H](CO)[C@@H](O[C@H]3O[C@H](CO)[C@@H](O)[C@H](O)[C@H]3O)[C@H](O)[C@H]2O)[C@H](O)[C@H]1O; Arg(Nω-βLac) = N=C(NCCC[C@H](N)C(=O)O)N[C@@H]1O[C@H](CO)[C@@H](O[C@@H]2O[C@H](CO)[C@H](O)[C@H](O)[C@H]2O)[C@H](O)[C@H]1O; X2 = CC(=O)N[C@@H]1[C@@H](O)[C@H](O)[C@@H](CO)O[C@H]1NC(=N)NCCC[C@H](N[*:1])C(=O)[*:2]; S5 = C=CCCC[C@](C)(N)C(=O)O

Legend:
[1] = Hemolytic activity in BALB/c mouse red blood cells assessed as hemolysis incubated for 1 hrs; format: toxicity, cell-based, Erythrocyte; details: read-out: HD50
[2] = tested on: Klebsiella pneumoniae; assay: Antimicrobial activity against Klebsiella pneumoniae ATCC 13883 assessed as growth inhibition measured after 8 hrs incubation by standard broth dilution assay; format: functional
[3] = tested on: Streptococcus pneumoniae; assay: Antimicrobial activity against Streptococcus pneumoniae ATCC 49619 assessed as growth inhibition measured after 8 hrs incubation by standard broth dilution assay; format: functional
[4] = tested on: Pseudomonas aeruginosa; assay: Antimicrobial activity against Pseudomonas aeruginosa ATCC 27853 assessed as growth inhibition measured after 8 hrs incubation by standard broth dilution assay; format: functional
[5] = tested on: Staphylococcus aureus; assay: Antimicrobial activity against methicillin-resistant Staphylococcus aureus ATCC 43300 assessed as growth inhibition measured after 8 hrs incubation by standard broth dilution assay; format: functional

Row | SMILES | HC50 at 1 h [1] [µg/mL] | MIC [2] [µg/mL] | MIC [3] [µg/mL] | MIC [4] [µg/mL] | MIC [5] [µg/mL]
1 | CC(=O)N[C@@H](CC(C)C)C(=O)N[C@@H](CCCCN)C(=O)N[C@@H](CCCNC(=N)N)C(=O)N[C@H](C(=O)N[C@@H](CCCCN)C(=O)N[C@@H](CCCCN)C(=O)N[C@@H](CCCNC(=N)N)C(=O)N[C@H](C(=O)N[C@@H](Cc1ccccc1)C(=O)N[C@@H](CCCCN)C(=O)N[C@@H](CC(C)C)C(=O)N[C@@H](CC(C)C)C(=O)N[C@@H](CCCCN)C(=O)N[C@@]1(C)CCC/C=C\CCC[C@@](C)(C(=O)N[C@@H](CC(C)C)C(=O)N[C@@H](CCCCN)C(=O)N[C@@H](CCCCN)C(=O)N2CCC[C@H]2C(=O)N[C@H](C(=O)N[C@@H](CCCNC(=N)N)C(N)=O)C(C)C)NC(=O)[C@H](CCCNC(=N)N)NC(=O)[C@H](Cc2c[nH]c3ccccc23)NC(=O)[C@H](Cc2ccc(O)cc2)NC1=O)C(C)C)C(C)C (Ac-LKRVKKRVFKLLK[S5]YWR[S5]LKKPVR-NH2; staple (Z) 14-18) | 15.3 | 10.1 (≈ 3.18 µM) | 4.7 (≈ 1.48 µM) | 5 (≈ 1.57 µM) | 19 (≈ 5.98 µM)
2 | CC(=O)N[C@@H](CC(C)C)C(=O)N[C@@H](CCCCN)C(=O)N[C@@H](CCCNC(=N)N)C(=O)N[C@H](C(=O)N[C@@H](Cc1c[nH]c2ccccc12)C(=O)N[C@@H](CCCCN)C(=O)N[C@@H](CCCNC(=N)N)C(=O)N[C@@H](CCCCN)C(=O)N[C@@H](Cc1ccccc1)C(=O)N[C@@H](CCCCN)C(=O)N[C@@H](CC(C)C)C(=O)N[C@@H](CC(C)C)C(=O)N[C@@H](CCCCN)C(=O)N[C@@]1(C)CCC/C=C\CCC[C@@](C)(C(=O)N[C@@H](CC(C)C)C(=O)N[C@@H](CCCCN)C(=O)N[C@@H](CCCCN)C(=O)N2CCC[C@H]2C(=O)N[C@H](C(=O)N[C@@H](CCCNC(=N)N)C(N)=O)C(C)C)NC(=O)[C@H](CCCNC(=N)N)NC(=O)[C@H](Cc2c[nH]c3ccccc23)NC(=O)[C@H](Cc2ccc(O)cc2)NC1=O)C(C)C (Ac-LKRVWKRKFKLLK[S5]YWR[S5]LKKPVR-NH2; staple (Z) 14-18) | 32.3 | 10.1 (≈ 3.1 µM) | 2.4 (≈ 0.736 µM) | 5 (≈ 1.53 µM) | 10.1 (≈ 3.1 µM)
3 | CC(=O)N[C@@H](CC(C)C)C(=O)N[C@@H](CCCCN)C(=O)N[C@@H](CCCNC(=N)N)C(=O)N[C@H](C(=O)N[C@@H](Cc1c[nH]c2ccccc12)C(=O)N[C@@H](CCCCN)C(=O)N[C@@H](CCCNC(=N)N)C(=O)N[C@H](C(=O)N[C@@H](Cc1ccccc1)C(=O)N[C@@H](CCCCN)C(=O)N[C@@H](CCCCN)C(=O)N[C@@H](CC(C)C)C(=O)N[C@@H](CCCCN)C(=O)N[C@@]1(C)CCC/C=C\CCC[C@@](C)(C(=O)N[C@@H](CC(C)C)C(=O)N[C@@H](CCCCN)C(=O)N[C@@H](CCCCN)C(=O)N2CCC[C@H]2C(=O)N[C@H](C(=O)N[C@@H](CCCNC(=N)N)C(N)=O)C(C)C)NC(=O)[C@H](CCCNC(=N)N)NC(=O)[C@H](Cc2c[nH]c3ccccc23)NC(=O)[C@H](Cc2ccc(O)cc2)NC1=O)C(C)C)C(C)C (Ac-LKRVWKRVFKKLK[S5]YWR[S5]LKKPVR-NH2; staple (Z) 14-18) | 35.2 | 38 (≈ 11.7 µM) | 4.7 (≈ 1.45 µM) | 5 (≈ 1.54 µM) | 10.1 (≈ 3.11 µM)
4 | CC(=O)N[C@@H](CC(C)C)C(=O)N[C@@H](CCCCN)C(=O)N[C@@H](CCCNC(=N)N)C(=O)N[C@H](C(=O)N[C@@H](Cc1c[nH]c2ccccc12)C(=O)N[C@@H](CCCCN)C(=O)N[C@@H](CCCNC(=N)N)C(=O)N[C@H](C(=O)N[C@@H](Cc1ccccc1)C(=O)N[C@@H](CCCCN)C(=O)N[C@@H](CC(C)C)C(=O)N[C@@H](CCCCN)C(=O)N[C@@H](CCCCN)C(=O)N[C@@]1(C)CCC/C=C\CCC[C@@](C)(C(=O)N[C@@H](CC(C)C)C(=O)N[C@@H](CCCCN)C(=O)N[C@@H](CCCCN)C(=O)N2CCC[C@H]2C(=O)N[C@H](C(=O)N[C@@H](CCCNC(=N)N)C(N)=O)C(C)C)NC(=O)[C@H](CCCNC(=N)N)NC(=O)[C@H](Cc2c[nH]c3ccccc23)NC(=O)[C@H](Cc2ccc(O)cc2)NC1=O)C(C)C)C(C)C (Ac-LKRVWKRVFKLKK[S5]YWR[S5]LKKPVR-NH2; staple (Z) 14-18) | 70.1 | 38 (≈ 11.7 µM) | 4.7 (≈ 1.45 µM) | 5 (≈ 1.54 µM) | 10.1 (≈ 3.11 µM)
5 | CC(=O)N[C@@H](CC(C)C)C(=O)N[C@@H](CCCCN)C(=O)N[C@@H](CCCNC(=N)N)C(=O)N[C@H](C(=O)N[C@@H](Cc1c[nH]c2ccccc12)C(=O)N[C@@H](CCCCN)C(=O)N[C@@H](CCCNC(=N)N)C(=O)N[C@H](C(=O)N[C@@H](Cc1ccccc1)C(=O)N[C@@H](CCCCN)C(=O)N[C@@H](CC(C)C)C(=O)N[C@@H](CC(C)C)C(=O)N[C@@H](CCCCN)C(=O)N[C@@H](CCCNC(=N)N)C(=O)N[C@@H](Cc1ccc(O)cc1)C(=O)N[C@@H](Cc1c[nH]c2ccccc12)C(=O)N[C@@H](CCCNC(=N)N)C(=O)N[C@@H](CCC(N)=O)C(=O)N[C@@H](CC(C)C)C(=O)N[C@@H](CCCCN)C(=O)N[C@@H](CCCCN)C(=O)N1CCC[C@H]1C(=O)N[C@H](C(=O)N[C@@H](CCCNC(=N)N[C@@H]1O[C@H](CO)[C@@H](O[C@@H]2O[C@H](CO)[C@H](O)[C@H](O)[C@H]2O)[C@H](O)[C@H]1O)C(N)=O)C(C)C)C(C)C)C(C)C (Ac-LKRVWKRVFKLLKRYWRQLKKPV[Arg(Nω-βLac)]-NH2) | 39.7 | 38 (≈ 10.6 µM) | 4.7 (≈ 1.31 µM) | 5 (≈ 1.39 µM) | 4.9 (≈ 1.36 µM)
6 | CC(=O)N[C@@H](CC(C)C)C(=O)N[C@@H](CCCCN)C(=O)N[C@@H](CCCNC(=N)N)C(=O)N[C@H](C(=O)N[C@@H](Cc1c[nH]c2ccccc12)C(=O)N[C@@H](CCCCN)C(=O)N[C@@H](CCCNC(=N)N)C(=O)N[C@H](C(=O)N[C@@H](Cc1ccccc1)C(=O)N[C@@H](CCCCN)C(=O)N[C@@H](CC(C)C)C(=O)N[C@@H](CC(C)C)C(=O)N[C@@H](CCCCN)C(=O)N[C@@H](CCCNC(=N)N)C(=O)N[C@@H](Cc1ccc(O)cc1)C(=O)N[C@@H](Cc1c[nH]c2ccccc12)C(=O)N[C@@H](CCCNC(=N)N)C(=O)N[C@@H](CCC(N)=O)C(=O)N[C@@H](CC(C)C)C(=O)N[C@@H](CCCCN)C(=O)N[C@@H](CCCCN)C(=O)N1CCC[C@H]1C(=O)N[C@H](C(=O)N[C@@H](CCCNC(=N)N[C@@H]1O[C@H](CO)[C@@H](O[C@H]2O[C@H](CO)[C@@H](O[C@H]3O[C@H](CO)[C@@H](O)[C@H](O)[C@H]3O)[C@H](O)[C@H]2O)[C@H](O)[C@H]1O)C(N)=O)C(C)C)C(C)C)C(C)C (Ac-LKRVWKRVFKLLKRYWRQLKKPV[X1]-NH2) | 45.7 | 38 (≈ 10.1 µM) | 4.7 (≈ 1.25 µM) | 2.6 (≈ 0.693 µM) | 4.9 (≈ 1.31 µM)
7 | CC(=O)N[C@@H]1[C@@H](O)[C@H](O)[C@@H](CO)O[C@H]1NC(=N)NCCC[C@H](NC(=O)[C@@H](NC(=O)[C@@H]1CCCN1C(=O)[C@H](CCCCN)NC(=O)[C@H](CCCCN)NC(=O)[C@H](CC(C)C)NC(=O)[C@H](CCC(N)=O)NC(=O)[C@H](CCCNC(=N)N)NC(=O)[C@H](Cc1c[nH]c2ccccc12)NC(=O)[C@H](Cc1ccc(O)cc1)NC(=O)[C@H](CCCNC(=N)N)NC(=O)[C@H](CCCCN)NC(=O)[C@H](CC(C)C)NC(=O)[C@H](CC(C)C)NC(=O)[C@H](CCCCN)NC(=O)[C@H](Cc1ccccc1)NC(=O)[C@@H](NC(=O)[C@H](CCCNC(=N)N)NC(=O)[C@H](CCCCN)NC(=O)[C@H](Cc1c[nH]c2ccccc12)NC(=O)[C@@H](NC(=O)[C@H](CCCNC(=N)N)NC(=O)[C@H](CCCCN)NC(=O)[C@H](CC(C)C)NC(C)=O)C(C)C)C(C)C)C(C)C)C(N)=O (Ac-LKRVWKRVFKLLKRYWRQLKKPV[X2]-NH2) | 35.8 | 38 (≈ 10.9 µM) | 4.7 (≈ 1.35 µM) | 5 (≈ 1.44 µM) | 4.9 (≈ 1.41 µM)
8 | CC(=O)N[C@@H](CC(C)C)C(=O)N[C@@H](CCCCN)C(=O)N[C@@H](CCCNC(=N)N)C(=O)N[C@H](C(=O)N[C@@H](Cc1c[nH]c2ccccc12)C(=O)N[C@@H](CCCCN)C(=O)N[C@@H](CCCNC(=N)N)C(=O)N[C@H](C(=O)N[C@@H](Cc1ccccc1)C(=O)N[C@@H](CCCCN)C(=O)N[C@@H](CC(C)C)C(=O)N[C@@H](CC(C)C)C(=O)N[C@@H](CCCCN)C(=O)N[C@@]1(C)CCC/C=C\CCC[C@@](C)(C(=O)N[C@@H](CC(C)C)C(=O)N[C@@H](CCCCN)C(=O)N[C@@H](CCCCN)C(=O)N2CCC[C@H]2C(=O)N[C@H](C(=O)N[C@@H](CCCNC(=N)N)C(N)=O)C(C)C)NC(=O)[C@H](CCCNC(=N)N)NC(=O)[C@H](Cc2c[nH]c3ccccc23)NC(=O)[C@H](CCCCN)NC1=O)C(C)C)C(C)C (Ac-LKRVWKRVFKLLK[S5]KWR[S5]LKKPVR-NH2; staple (Z) 14-18) | 53.6 | 38 (≈ 11.9 µM) | 2.4 (≈ 0.75 µM) | 5 (≈ 1.56 µM) | 10.1 (≈ 3.16 µM)
9 | CC(=O)N[C@@H](CC(C)C)C(=O)N[C@@H](CCCCN)C(=O)N[C@@H](CCCNC(=N)N)C(=O)N[C@H](C(=O)N[C@@H](Cc1c[nH]c2ccccc12)C(=O)N[C@@H](CCCCN)C(=O)N[C@@H](CCCNC(=N)N)C(=O)N[C@H](C(=O)N[C@@H](Cc1ccccc1)C(=O)N[C@@H](CCCCN)C(=O)N[C@@H](CC(C)C)C(=O)N[C@@H](CC(C)C)C(=O)N[C@@H](CCCCN)C(=O)N[C@@]1(C)CCC/C=C\CCC[C@@](C)(C(=O)N[C@@H](CC(C)C)C(=O)N[C@@H](CCCCN)C(=O)N[C@@H](CCCCN)C(=O)N2CCC[C@H]2C(=O)N[C@H](C(=O)N[C@@H](CCCNC(=N)N)C(N)=O)C(C)C)NC(=O)[C@H](CCCNC(=N)N)NC(=O)[C@H](CCCCN)NC(=O)[C@H](Cc2ccc(O)cc2)NC1=O)C(C)C)C(C)C (Ac-LKRVWKRVFKLLK[S5]YKR[S5]LKKPVR-NH2; staple (Z) 14-18) | 21 | 38 (≈ 12 µM) | 4.7 (≈ 1.48 µM) | 5 (≈ 1.57 µM) | 4.9 (≈ 1.54 µM)
